Measured values as given in patent US5332740A, “DC-89 derivatives” (priority 1990, dated 1994).

How the values were obtained:
various bacteria = conditions: against various bacteria; cited from earlier work
melanoma B-16 = conditions: against melanoma B-16; cited from earlier work
ddY-strain male mice = test: Acute Toxicity Test; assay type: in vivo; conditions: intraperitoneal; mortality observed for 14 days after the administration
Method: A test compound was intraperitoneally administered to ddY-strain male mice each weighing 20±1 g. MLD (the minimum lethal dose) was determined by observing the mortality for 14 days after the administration.

Sarcoma 180 tumor = test: Therapeutic Effect against Sarcoma 180 Tumor; assay type: in vivo, male ddY-strain mice; conditions: single intravenous, average tumor volume treated/control, seven days after implantation
Method: Therapeutic Effect against Sarcoma 180 Tumor
Five male ddY-strain mice each having a weight of 18 to 20 g were used for each group as test animals, and 5×10^5 Sarcoma 180 tumor cells were implanted subcutaneously into the animals at the axilla. One day after the implantation, 0.2 ml of physiological saline containing Compound (I) at the concentration indicated in Table 3 was intravenously administered to each mouse. T/C [T: average tumor volume (mm^3) of the group treated with the test compound, C: that of the control group which received an intravenous administration of 0.2 ml of physiological saline] was determined seven days after the implantation.

| SMILES | antibacterial activity (various bacteria) | anti-tumor activity (melanoma B-16) | Acute Toxicity (MLD), minimum lethal dose (ddY-strain male mice) [mg/kg] | also measured |
| --- | --- | --- | --- | --- |
| COC(=O)C1(C)Nc2c(O)cc3c(c2C1=O)C(CCl)CN3C(=O)c1cc2cc(OC)c(OC)c(OC)c2[nH]1 (stereo not shown) [DC-89A2] | exhibit an antibacterial activity against various bacteria | show an anti-tumor activity against melanoma B-16 |  |  |
| COC(=O)C1(C)NC2=C(C1=O)C13CC1CN(C(=O)c1cc4cc(OC)c(OC)c(OC)c4[nH]1)C3=CC2=O (stereo not shown) [DC-88A] | shows an antibacterial activity against a variety of bacteria | exhibits an anti-tumor activity against melanoma B-16 |  |  |
| COc1cc2cc(C(=O)N3CC(Cl)Cc4c3cc(O[Si](C)(C)C(C)(C)C)c3[nH]c(C)cc43)[nH]c2c(OC)c1OC (stereo not shown) [Compound 11] |  |  | > 8.0 |  |
| COC(=O)C1(C)Nc2c(OC(=O)N3CCN(CCN)CC3)cc3c(c2C1=O)CC(Br)CN3C(=O)c1cc2cc(OC)c(OC)c(OC)c2[nH]1 (stereo not shown) [Compound 4] |  |  | 2.0 | T/C (Sarcoma 180 tumor; dose 1.0 mg/kg, 1 mg/kg): 0.047 |
| COC(=O)C1(C)Nc2c(OC(=O)N3CCC(N4CCCCC4)CC3)cc3c(c2C1=O)CC(Br)CN3C(=O)c1cc2cc(OC)c(OC)c(OC)c2[nH]1 (stereo not shown) [Compound 5] |  |  | 2.0 |  |
| COc1cc2cc(C(=O)N3CC(Br)Cc4c3cc(OC(=O)N(C)C)c3[nH]c(C)cc43)[nH]c2c(OC)c1OC (stereo not shown) [Compound 9] |  |  | 0.50 | T/C (Sarcoma 180 tumor; dose 0.25 mg/kg): 0.15; T/C (Sarcoma 180 tumor; dose 0.50 mg/kg): 0.068 |
| COC(=O)C1(C)Nc2c(OC(=O)N3CCN(C)CC3)cc3c(c2C1=O)CC(Br)CN3C(=O)c1cc2cc(OC)c(OC)c(OC)c2[nH]1 (stereo not shown) [Compound 2] |  |  | 5.2 | T/C (Sarcoma 180 tumor; dose 1.0 mg/kg): 0.19; T/C (Sarcoma 180 tumor; dose 2.0 mg/kg): 0.083 |
| COc1cc2cc(C(=O)N3CC(Br)Cc4c3cc(O[Si](C)(C)C(C)(C)C)c3[nH]c(C)cc43)[nH]c2c(OC)c1OC (stereo not shown) [Compound 8] |  |  | 8.0 | T/C (Sarcoma 180 tumor; dose 2.0 mg/kg): 0.19 |
| COC(=O)c1c(C)[nH]c2c(O[Si](C)(C)C(C)(C)C)cc3c(c12)CC(Cl)CN3C(=O)c1cc2cc(OC)c(OC)c(OC)c2[nH]1 (stereo not shown) [Compound 10] |  |  | > 8.0 |  |
| COC(=O)C1(C)Nc2c(OC(=O)N3CCN(CCN)CC3)cc3c(c2C1=O)CC(Br)CN3C(=O)c1cc2cc(OC)c(OC)c(OC)c2[nH]1 (stereo not shown) [Compound 3] |  |  | 2.0 | T/C (Sarcoma 180 tumor; dose 0.50 mg/kg): 0.25; T/C (Sarcoma 180 tumor; dose 1.0 mg/kg, 1 mg/kg): 0.094 |
| COC(=O)C1(C)Nc2c(O)cc3c(c2C1=O)C(CBr)CN3C(=O)c1cc2cc(OC)c(OC)c(OC)c2[nH]1 (stereo not shown) [DC-89B2] | exhibit an antibacterial activity against various bacteria | show an anti-tumor activity against melanoma B-16 |  |  |
| COC(=O)C1(C)Nc2c(O)cc3c(c2C1=O)CC(Br)CN3C(=O)c1cc2cc(OC)c(OC)c(OC)c2[nH]1 (stereo not shown) [DC-89B1] | exhibit an antibacterial activity against various bacteria | show an anti-tumor activity against melanoma B-16 |  |  |
| COC(=O)c1c(C)[nH]c2c(O[Si](C)(C)C(C)(C)C)cc3c(c12)CC(Br)CN3C(=O)c1cc2cc(OC)c(OC)c(OC)c2[nH]1 (stereo not shown) [Compound 7] |  |  | 4.0 | T/C (Sarcoma 180 tumor; dose 1.0 mg/kg): 0.13; T/C (Sarcoma 180 tumor; dose 2.0 mg/kg): 0.025 |
| COC(=O)C1(C)Nc2c(OC(=O)N3CCC(N4CCCCC4)CC3)cc3c(c2C1=O)CC(Br)CN3C(=O)c1cc2cc(OC)c(OC)c(OC)c2[nH]1 (stereo not shown) [Compound 6] |  |  | 4.0 |  |
| COC(=O)C1(C)Nc2c(O)cc3c(c2C1=O)CC(Cl)CN3C(=O)c1cc2cc(OC)c(OC)c(OC)c2[nH]1 (stereo not shown) [DC-89A1] | exhibit an antibacterial activity against various bacteria | show an anti-tumor activity against melanoma B-16 |  |  |
| COC(=O)C1(C)Nc2c(OC(=O)N3CCN(C)CC3)cc3c(c2C1=O)CC(Cl)CN3C(=O)c1cc2cc(OC)c(OC)c(OC)c2[nH]1 (stereo not shown) [Compound 14] |  |  | > 16 |  |
